Test results reported in PubChem BioAssay (NCI).
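Protocol summary: plate cells (96-well), add compound at 5 concentrations, incubate 48 h, interpolate endpoints linearly. Abbreviation: GI50, concentration required for 50% inhibition of growth. Definition used: TGI = concentration required for complete inhibition of growth.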

Experiments:
Assay in all cases: growth of human tumour cells (NCI), 48 h
HOP-92 NSCLC = tested on: HOP-92 NSCLC
SK-MEL-28 melanoma = tested on: SK-MEL-28 melanoma
NCI-H522 lung = tested on: NCI-H522 lung
NCI-H460 lung = tested on: NCI-H460 lung
HCT-116 colon = tested on: HCT-116 colon
CCRF-CEM leukemia = tested on: CCRF-CEM leukemia
HCT-15 colon = tested on: HCT-15 colon
OVCAR-3 ovarian = tested on: OVCAR-3 ovarian
IGROV1 ovarian = tested on: IGROV1 ovarian
UO-31 renal = tested on: UO-31 renal
LOX IMVI melanoma = tested on: LOX IMVI melanoma
RPMI-8226 leukemia = tested on: RPMI-8226 leukemia
OVCAR-8 ovarian = tested on: OVCAR-8 ovarian
HL-60(TB) leukemia = tested on: HL-60(TB) leukemia
NCI-H23 lung = tested on: NCI-H23 lung
COLO 205 colon = tested on: COLO 205 colon
BT-549 breast = tested on: BT-549 breast
SW-620 colon = tested on: SW-620 colon
SK-MEL-5 melanoma = tested on: SK-MEL-5 melanoma
SF-539 CNS = tested on: SF-539 CNS
U251 CNS = tested on: U251 CNS
SNB-19 CNS = tested on: SNB-19 CNS
SN12C renal = tested on: SN12C renal
HT29 colon = tested on: HT29 colon
MDA-MB-231 breast = tested on: MDA-MB-231 breast
HS 578T breast = tested on: HS 578T breast
SF-268 CNS = tested on: SF-268 CNS
A498 renal = tested on: A498 renal
T-47D breast = tested on: T-47D breast
TK-10 renal = tested on: TK-10 renal
A549 NSCLC = tested on: A549 NSCLC
MOLT-4 leukemia = tested on: MOLT-4 leukemia
SF-295 CNS = tested on: SF-295 CNS
NCI/ADR-RES ovarian = tested on: NCI/ADR-RES ovarian
HCC-2998 colon = tested on: HCC-2998 colon
CAKI-1 renal = tested on: CAKI-1 renal
KM12 colon = tested on: KM12 colon
MDA-MB-435 = tested on: MDA-MB-435
786-0 renal = tested on: 786-0 renal
UACC-257 melanoma = tested on: UACC-257 melanoma
UACC-62 melanoma = tested on: UACC-62 melanoma
SNB-75 CNS = tested on: SNB-75 CNS
ACHN renal = tested on: ACHN renal
SK-MEL-2 melanoma = tested on: SK-MEL-2 melanoma
MALME-3M melanoma = tested on: MALME-3M melanoma
SK-OV-3 ovarian = tested on: SK-OV-3 ovarian
NCI-H226 lung = tested on: NCI-H226 lung
K-562 leukemia = tested on: K-562 leukemia
OVCAR-5 ovarian = tested on: OVCAR-5 ovarian
PC-3 prostate = tested on: PC-3 prostate
EKVX NSCLC = tested on: EKVX NSCLC
OVCAR-4 ovarian = tested on: OVCAR-4 ovarian
DU-145 prostate = tested on: DU-145 prostate
M14 melanoma = tested on: M14 melanoma
MCF7 breast = tested on: MCF7 breast
HOP-62 NSCLC = tested on: HOP-62 NSCLC

O=C1C[C@@H](c2ccc(O)cc2)[C@@]2(O1)C(=O)O[C@H]([C@@H](O)CO)[C@@H]2O
TGI (HOP-92 NSCLC): > 100 µM | TGI (SK-MEL-28 melanoma): > 100 µM | TGI (NCI-H522 lung): > 100 µM | TGI (NCI-H460 lung): > 100 µM | TGI (HCT-116 colon): > 100 µM | TGI (CCRF-CEM leukemia): > 100 µM | TGI (HCT-15 colon): > 100 µM | TGI (OVCAR-3 ovarian): > 100 µM | TGI (IGROV1 ovarian): > 100 µM | TGI (UO-31 renal): > 100 µM | TGI (LOX IMVI melanoma): > 100 µM | TGI (RPMI-8226 leukemia): > 100 µM | TGI (OVCAR-8 ovarian): > 100 µM | TGI (HL-60(TB) leukemia): > 100 µM | TGI (NCI-H23 lung): > 100 µM | TGI (COLO 205 colon): > 100 µM | TGI (BT-549 breast): > 100 µM | TGI (SW-620 colon): > 100 µM | TGI (SK-MEL-5 melanoma): > 100 µM | TGI (SF-539 CNS): > 100 µM | TGI (U251 CNS): > 100 µM | TGI (SNB-19 CNS): > 100 µM | TGI (SN12C renal): > 100 µM | TGI (HT29 colon): > 100 µM | TGI (MDA-MB-231 breast): > 100 µM | TGI (HS 578T breast): > 100 µM | TGI (SF-268 CNS): > 100 µM | TGI (A498 renal): > 100 µM | TGI (T-47D breast): > 100 µM | TGI (TK-10 renal): > 100 µM | TGI (A549 NSCLC): > 100 µM | TGI (MOLT-4 leukemia): > 100 µM | TGI (SF-295 CNS): > 100 µM | TGI (NCI/ADR-RES ovarian): > 100 µM | TGI (HCC-2998 colon): > 100 µM | TGI (CAKI-1 renal): > 100 µM | TGI (KM12 colon): > 100 µM | TGI (MDA-MB-435): > 100 µM | TGI (786-0 renal): > 100 µM | TGI (UACC-257 melanoma): > 100 µM | TGI (UACC-62 melanoma): > 100 µM | TGI (SNB-75 CNS): > 100 µM | TGI (ACHN renal): > 100 µM | TGI (SK-MEL-2 melanoma): > 100 µM | TGI (MALME-3M melanoma): > 100 µM | TGI (SK-OV-3 ovarian): > 100 µM | TGI (NCI-H226 lung): > 100 µM | TGI (K-562 leukemia): > 100 µM | TGI (OVCAR-5 ovarian): > 100 µM | TGI (PC-3 prostate): > 100 µM | TGI (EKVX NSCLC): > 100 µM | TGI (OVCAR-4 ovarian): > 100 µM | TGI (DU-145 prostate): > 100 µM | TGI (M14 melanoma): > 100 µM | TGI (MCF7 breast): > 100 µM

CCSc1nc2[nH]c(=S)[nH]c(=S)c2c(-c2ccc(OC)c(OC)c2)c1C#N
GI50 (HOP-92 NSCLC): 19 µM | TGI (HOP-92 NSCLC): > 50 µM | GI50 (NCI-H460 lung): 21 µM | TGI (NCI-H460 lung): > 50 µM | GI50 (HCT-116 colon): 18.2 µM | TGI (HCT-116 colon): > 50 µM | GI50 (HCT-15 colon): 16.5 µM | TGI (HCT-15 colon): > 50 µM | GI50 (OVCAR-3 ovarian): 11 µM | TGI (OVCAR-3 ovarian): 34.6 µM | GI50 (UO-31 renal): 11.7 µM | TGI (UO-31 renal): 36 µM | GI50 (LOX IMVI melanoma): 14.5 µM | TGI (LOX IMVI melanoma): > 50 µM | GI50 (RPMI-8226 leukemia): 16.8 µM | TGI (RPMI-8226 leukemia): > 50 µM | GI50 (OVCAR-8 ovarian): 18.9 µM | TGI (OVCAR-8 ovarian): > 50 µM | GI50 (HL-60(TB) leukemia): 16.1 µM | TGI (HL-60(TB) leukemia): > 50 µM | GI50 (NCI-H23 lung): 18.6 µM | TGI (NCI-H23 lung): > 50 µM | GI50 (COLO 205 colon): 14.2 µM | TGI (COLO 205 colon): 45.2 µM | GI50 (BT-549 breast): 14.6 µM | TGI (BT-549 breast): 46.8 µM | GI50 (SW-620 colon): 26.5 µM | TGI (SW-620 colon): > 50 µM | GI50 (SK-MEL-5 melanoma): 6.86 µM | TGI (SK-MEL-5 melanoma): 21.5 µM | GI50 (SF-539 CNS): 14.8 µM | TGI (SF-539 CNS): 35.4 µM | GI50 (U251 CNS): 17.8 µM | TGI (U251 CNS): > 50 µM | GI50 (SNB-19 CNS): 21.4 µM | TGI (SNB-19 CNS): > 50 µM | GI50 (SN12C renal): 16.9 µM | TGI (SN12C renal): > 50 µM | GI50 (MDA-MB-231 breast): 9.75 µM | TGI (MDA-MB-231 breast): 40.3 µM | GI50 (HS 578T breast): 13.2 µM | TGI (HS 578T breast): 45.8 µM | GI50 (SF-268 CNS): 15.9 µM | TGI (SF-268 CNS): 46.4 µM | GI50 (T-47D breast): 23.5 µM | TGI (T-47D breast): > 50 µM | GI50 (HOP-62 NSCLC): 19.8 µM | TGI (HOP-62 NSCLC): > 50 µM | GI50 (TK-10 renal): 43.5 µM | TGI (TK-10 renal): > 50 µM | GI50 (A549 NSCLC): 14.8 µM | TGI (A549 NSCLC): > 50 µM | GI50 (SF-295 CNS): 18.9 µM | TGI (SF-295 CNS): > 50 µM | GI50 (NCI/ADR-RES ovarian): 14.7 µM | TGI (NCI/ADR-RES ovarian): 32.8 µM | GI50 (CAKI-1 renal): 17.4 µM | TGI (CAKI-1 renal): > 50 µM | GI50 (KM12 colon): 21.9 µM | TGI (KM12 colon): > 50 µM | GI50 (MDA-MB-435): 10.5 µM | TGI (MDA-MB-435): 42.5 µM | GI50 (786-0 renal): 16.5 µM | TGI (786-0 renal): > 50 µM | GI50 (UACC-257 melanoma): 16.5 µM | TGI (UACC-257 melanoma): 43.7 µM | GI50 (UACC-62 melanoma): 14.3 µM | TGI (UACC-62 melanoma): > 50 µM | GI50 (ACHN renal): 17.2 µM | TGI (ACHN renal): > 50 µM | GI50 (SK-OV-3 ovarian): 21.1 µM | TGI (SK-OV-3 ovarian): > 50 µM | GI50 (K-562 leukemia): 9.68 µM | TGI (K-562 leukemia): 24.3 µM | GI50 (OVCAR-5 ovarian): > 50 µM | TGI (OVCAR-5 ovarian): > 50 µM | GI50 (PC-3 prostate): 22.6 µM | TGI (PC-3 prostate): > 50 µM | GI50 (EKVX NSCLC): 17 µM | TGI (EKVX NSCLC): > 50 µM | GI50 (DU-145 prostate): 21.8 µM | TGI (DU-145 prostate): > 50 µM | GI50 (M14 melanoma): 15.2 µM | TGI (M14 melanoma): > 50 µM | GI50 (MCF7 breast): 22.1 µM | TGI (MCF7 breast): > 50 µM
